Format in all cases: cell-based
The target in assay [1] is T1, TREK-1 (Homo sapiens, UniProt O95069).
T1 construct: gene KCNK2; NP_055032.1, wild type, expressed in tsA201 cells
T1 sequence (O95069 1-426): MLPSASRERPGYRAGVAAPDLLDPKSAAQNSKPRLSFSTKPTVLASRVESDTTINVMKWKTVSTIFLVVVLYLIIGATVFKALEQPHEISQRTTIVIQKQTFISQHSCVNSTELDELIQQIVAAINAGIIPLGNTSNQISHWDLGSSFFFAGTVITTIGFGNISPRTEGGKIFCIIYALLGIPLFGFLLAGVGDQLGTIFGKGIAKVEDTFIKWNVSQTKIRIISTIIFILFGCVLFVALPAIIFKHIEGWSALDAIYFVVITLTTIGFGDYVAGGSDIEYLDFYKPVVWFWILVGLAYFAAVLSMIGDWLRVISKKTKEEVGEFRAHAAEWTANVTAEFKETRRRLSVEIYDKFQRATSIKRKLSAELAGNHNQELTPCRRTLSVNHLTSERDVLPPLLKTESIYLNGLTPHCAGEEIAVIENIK
Nature of the assay: whole-cell patch-clamp, current activation at […]. The settings on record: read-out: % current enhancement at 1 μM.

Assay [2] concerns the target T2, TREK-2 (Homo sapiens, UniProt P57789).
T2 construct: gene KCNK10; NP_612190.1, wild type, expressed in tsA201 cells
T2 sequence (P57789 1-538): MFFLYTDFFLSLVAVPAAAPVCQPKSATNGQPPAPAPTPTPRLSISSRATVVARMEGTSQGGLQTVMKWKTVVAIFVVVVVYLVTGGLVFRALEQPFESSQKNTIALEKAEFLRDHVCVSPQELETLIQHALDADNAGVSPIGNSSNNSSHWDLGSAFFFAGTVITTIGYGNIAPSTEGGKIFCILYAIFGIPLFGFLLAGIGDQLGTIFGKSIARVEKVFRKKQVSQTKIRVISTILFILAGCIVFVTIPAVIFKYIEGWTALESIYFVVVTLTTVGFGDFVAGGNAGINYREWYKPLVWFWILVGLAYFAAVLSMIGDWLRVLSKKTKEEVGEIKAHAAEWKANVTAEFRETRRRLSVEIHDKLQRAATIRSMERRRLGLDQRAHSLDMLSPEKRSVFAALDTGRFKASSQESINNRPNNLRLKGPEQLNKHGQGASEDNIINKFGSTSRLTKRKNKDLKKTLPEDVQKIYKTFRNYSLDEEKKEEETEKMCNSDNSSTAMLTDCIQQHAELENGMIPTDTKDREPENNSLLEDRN
Nature of the assay: whole-cell patch-clamp, current activation at […]. The settings on record: read-out: % current enhancement at 1 μM.

Assay [3] has as its target T1, TREK-1. Nature of the assay: whole-cell patch-clamp, concentration-response.
The target in assay [4] is T3, TREK-1 (Homo sapiens, UniProt O95069, Y299A).
T3 construct: gene KCNK2; homodimeric mutant channel in tsA201 cells
T3 sequence (O95069 1-411 isoform O95069-2 Y284A): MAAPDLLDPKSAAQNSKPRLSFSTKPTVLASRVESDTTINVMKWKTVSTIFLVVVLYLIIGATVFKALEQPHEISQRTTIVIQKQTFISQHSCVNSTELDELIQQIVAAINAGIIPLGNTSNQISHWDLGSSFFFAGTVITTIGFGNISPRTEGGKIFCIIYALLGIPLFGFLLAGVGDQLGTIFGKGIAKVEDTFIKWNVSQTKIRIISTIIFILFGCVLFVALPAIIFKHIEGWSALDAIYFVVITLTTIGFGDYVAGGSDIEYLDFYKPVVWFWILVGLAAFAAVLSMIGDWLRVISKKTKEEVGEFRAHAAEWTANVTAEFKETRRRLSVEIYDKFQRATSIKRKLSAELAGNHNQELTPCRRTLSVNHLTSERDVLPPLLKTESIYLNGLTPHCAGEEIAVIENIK
Nature of the assay: whole-cell patch-clamp, […].

The target of assay [5] is T4, TREK-1 (Homo sapiens, UniProt O95069, I95A).
T4 construct: gene KCNK2; homodimeric mutant channel in tsA201 cells
T4 sequence (O95069 1-411 isoform O95069-2 I80A): T3 sequence (O95069 1-411 isoform O95069-2 Y284A) with I80A, A284Y
Nature of the assay: whole-cell patch-clamp, […].

Assay [6] concerns the target T5, TREK-1 (Homo sapiens, UniProt O95069, L304A).
T5 construct: gene KCNK2; homodimeric mutant channel in tsA201 cells
T5 sequence (O95069 1-411 isoform O95069-2 L289A): T3 sequence (O95069 1-411 isoform O95069-2 Y284A) with A284Y, L289A
Nature of the assay: whole-cell patch-clamp, […].

Assay [7] has as its target T6, TREK-1 (Homo sapiens, UniProt O95069, L117A).
T6 construct: gene KCNK2; homodimeric mutant channel in tsA201 cells
T6 sequence (O95069 16-426 L117A): T3 sequence (O95069 1-411 isoform O95069-2 Y284A) with M1V, L102A, A284Y
Nature of the assay: whole-cell patch-clamp, […].

For assay [8], the target named is T7, TREK-2 (Homo sapiens, UniProt P57789, L315A).
T7 construct: gene KCNK10; homodimeric mutant channel in tsA201 cells
T7 sequence (P57789 1-538 L315A): T2 sequence (P57789 1-538) with L315A
Nature of the assay: whole-cell patch-clamp, […].

The target in assay [9] is T8, TREK-1 (Homo sapiens, UniProt O95069, Q91A).
T8 construct: gene KCNK2; homodimeric mutant channel in tsA201 cells
T8 sequence (O95069 1-411 isoform O95069-2 Q76A): T3 sequence (O95069 1-411 isoform O95069-2 Y284A) with Q76A, A284Y
Nature of the assay: whole-cell patch-clamp, […].

Assay [10] addresses T2, TREK-2. Nature of the assay: whole-cell patch-clamp, concentration-response.

Changes are numbered by the printed parent chain. pIC50: −log10 of the molar value.

Here are results for two compounds from article PMC8276018, “The Prostacyclin Analogue, Treprostinil, Used in the Treatment of Pulmonary Arterial Hypertension, is a Potent Antagonist of TREK-1 and TREK-2 Potassium Channels” (Frontiers in Pharmacology, 2021).

`c1ccc(-c2nn[nH]n2)c(Nc2cccc3c2CCCC3)c1` [BL-1249]: the values for the activation at 1 µM at TREK-1 [1] and at TREK-2 [2] were 144% and 192%, respectively.
In the case of `CCCCC[C@H](O)CC[C@@H]1[C@H]2Cc3cccc(OCC(=O)O)c3C[C@H]2C[C@H]1O` [treprostinil], the pIC50 against TREK-1 [3] was 7.52; against TREK-2 [10], 7.40. In addition, the inhibition at 1 µM came out at 58% at TREK-1 [4]; 78.2% at TREK-1 [5]; 72% on TREK-1 [6]; 88% against TREK-1 [7]; 74% on TREK-2 [8]; 89% against TREK-1 [9].
